Measurements: patent US10294212B2 (CURADEV PHARMA PRIVATE LTD., priority 2013, dated 2019)

Legend:
[1] = molecular target: Human TDO (hTDO)-transfected CHO-K1 cells (Homo sapiens (Human), UniProt P48775); experiment: CHO-K1 cell based TDO assay; details: hTDO cellular assay
In short: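 Stably hTDO-expressing CHO-K1 cells were exposed to compounds (typically 31 μM to 10 nM) in HBSS with 80 μM L-tryptophan for 2 h. TCA-treated supernatant was heated at 65° C for 15 min to convert N-formylkynurenine, then kynurenine was quantified by LC/MS/MS. IC50 came from percent inhibition versus DMSO control.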

IDO1 in HeLa cells = IDO1 in HeLa cells (Homo sapiens (Human), UniProt P14902); experiment: HeLa cell based IDO1 assay (IFNγ-induced, KYN in supernatant)
In short: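 HeLa cells were induced overnight with IFNγ (50 ng/mL), washed, then exposed to compound (typically 10 μM–1 nM) in HBSS with 80 μM L-tryptophan. Supernatant was TCA-treated at 65 °C for 15 min to convert N-formylkynurenine, and KYN was measured by HPLC-UV at 360 nm. IC50 came from nonlinear regression against a 1% DMSO control.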

[2] = molecular target: Human indoleamine 2,3-dioxygenase1 (hIDO1) (Homo sapiens (Human), UniProt P14902); experiment: In-vitro IDO1 enzyme assay (conversion of L-tryptophan to KYN); format: biochemical; details: read-out: IC50 (IDO1) Enz
In short: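 His-tagged hIDO1 (10 nM, E. coli-expressed) incubated with 30 μM L-tryptophan, 20 mM ascorbate, 10 μM methylene blue and 100 μg/mL catalase in 50 mM potassium phosphate pH 6.5, 30 min at 37 °C. TCA stop, then 65 °C hydrolysis; KYN measured by HPLC-UV at 360 nm or LC/MS/MS. IC50 by nonlinear regression versus 1% DMSO control.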

Chain of IDO1 in HeLa cells (P14902 whole entry): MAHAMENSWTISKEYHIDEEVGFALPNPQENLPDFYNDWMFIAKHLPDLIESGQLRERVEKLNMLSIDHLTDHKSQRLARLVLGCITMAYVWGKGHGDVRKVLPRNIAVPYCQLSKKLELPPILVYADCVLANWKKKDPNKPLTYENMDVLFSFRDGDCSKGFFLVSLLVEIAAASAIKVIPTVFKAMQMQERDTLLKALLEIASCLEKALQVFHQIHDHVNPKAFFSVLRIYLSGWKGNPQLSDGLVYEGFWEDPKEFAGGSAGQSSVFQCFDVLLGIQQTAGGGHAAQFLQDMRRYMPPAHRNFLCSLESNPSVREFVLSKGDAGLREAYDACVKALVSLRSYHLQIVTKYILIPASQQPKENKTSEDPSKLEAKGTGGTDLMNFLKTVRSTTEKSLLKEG
Chain of Human indoleamine 2,3-dioxygenase1 (hIDO1) (P14902 whole entry): as above
Chain of Human TDO (hTDO)-transfected CHO-K1 cells (P48775 whole entry): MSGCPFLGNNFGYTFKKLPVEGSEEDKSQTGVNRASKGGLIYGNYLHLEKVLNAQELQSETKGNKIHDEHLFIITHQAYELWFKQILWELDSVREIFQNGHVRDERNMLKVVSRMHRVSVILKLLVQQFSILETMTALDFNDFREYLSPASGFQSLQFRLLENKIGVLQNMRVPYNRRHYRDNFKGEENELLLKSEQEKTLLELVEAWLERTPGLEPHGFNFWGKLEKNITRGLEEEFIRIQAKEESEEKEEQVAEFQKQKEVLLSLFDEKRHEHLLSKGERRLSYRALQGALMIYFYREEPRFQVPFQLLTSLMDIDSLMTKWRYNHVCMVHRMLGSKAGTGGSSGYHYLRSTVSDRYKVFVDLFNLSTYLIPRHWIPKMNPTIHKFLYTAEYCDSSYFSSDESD

Structure (SMILES) | IC50 [1] | IC50 (IDO1 in HeLa cells) | IC50 [2]
Cc1cc(C)cc(Nc2c(N)oc3cnccc23)c1 [Compound 14, N^3-(3,5-Dimethylphenyl)furo[2,3-c]pyridine-2,3-diamine] | 500 to 2000 nM | < 200 nM | 200 to 1000 nM
Nc1oc2c(-c3cccc(Cl)c3)nccc2c1Nc1ccc(F)c(Cl)c1 [Compound 100, N^3-(3-Chloro-4-fluorophenyl)-7-(3-chlorophenyl)furo[2,3-c]pyridine-2,3-diamine] | > 2000 nM | < 200 nM | < 200 nM
Nc1oc2cnccc2c1Nc1ccc(F)c(OC(F)(F)F)c1 [Compound 62, N^3-(4-Fluoro-3-(trifluoromethoxy)phenyl)furo[2,3-c]pyridine-2,3-diamine] | > 2000 nM | < 200 nM | 200 to 1000 nM
Cc1cc(-c2nccc3c(Nc4ccc(F)cc4)c(N)oc23)ccn1 [Compound 208, N^3-(4-fluorophenyl)-7-(2-methylpyridin-4-yl)furo[2,3-c]pyridine-2,3-diamine] | < 500 nM | < 200 nM | < 200 nM
CCc1nccc2c(Nc3cccc(C(F)(F)F)c3)c(N)oc12 [Compound 76, 7-Ethyl-N^3-(3-(trifluoromethyl)phenyl)furo[2,3-c]pyridine-2,3-diamine] | 500 to 2000 nM | < 200 nM | < 200 nM
Nc1oc2cnccc2c1Nc1ccccc1 [Compound 3, N^3-Phenylfuro[2,3-c]pyridine-2,3-diamine] | < 500 nM | < 200 nM | 200 to 1000 nM
Nc1oc2c(-c3ccccc3)nccc2c1Nc1ccc(F)c(Cl)c1 [Compound 81, N^3-(3-Chloro-4-fluorophenyl)-7-phenylfuro[2,3-c]pyridine-2,3-diamine] | < 500 nM | < 200 nM | < 200 nM
N#Cc1cccc(Nc2c(N)oc3cnccc23)c1 [Compound 99, 3-((2-Aminofuro[2,3-c]pyridin-3-yl)amino)benzonitrile] | > 2000 nM | < 200 nM | > 1000 nM
Nc1oc2cnc(F)cc2c1Nc1cccc(C(F)(F)F)c1 [Compound 221, 5-Fluoro-N^3-(3-(trifluoromethyl)phenyl)furo[2,3-c]pyridine-2,3-diamine] | 500 to 2000 nM | < 200 nM | < 200 nM
Cc1cc(-c2cccc3c(Nc4ccc(F)c(Cl)c4)c(N)sc23)ccn1 [Compound 240, N^3-(3-Chloro-4-fluorophenyl)-7-(2-methylpyridin-4-yl)benzo[b]thiophene-2,3-diamine] | > 2000 nM | < 200 nM | < 200 nM
Nc1oc2c(-c3ccccc3)nccc2c1Nc1cccc(C(F)(F)F)c1 [Compound 82, 7-Phenyl-N^3-(3-(trifluoromethyl)phenyl)furo[2,3-c]pyridine-2,3-diamine] | > 2000 nM | < 200 nM | < 200 nM
Cc1cc(-c2nc(F)cc3c(Nc4ccc(F)cc4)c(N)oc23)ccn1 [Compound 241, 5-Fluoro-N^3-(4-fluorophenyl)-7-(2-methylpyridin-4-yl)furo[2,3-c]pyridine-2,3-diamine] | < 500 nM | < 200 nM | < 200 nM
Cn1cc(-c2nccc3c(Nc4ccc(F)c(Cl)c4)c(N)oc23)cn1 [Compound 148, N^3-(3-Chloro-4-fluorophenyl)-7-(1-methyl-1H-pyrazol-4-yl)furo[2,3-c]pyridine-2,3-diamine] | 500 to 2000 nM | < 200 nM | < 200 nM
Nc1sc2ccccc2c1Nc1cccc(Cl)c1 [Compound 234, N^3-(3-Chlorophenyl)benzo[b]thiophene-2,3-diamine] | < 500 nM | < 200 nM | < 200 nM
Nc1oc2cnc(F)cc2c1Nc1ccccc1Cl [Compound 218, N^3-(2-Chlorophenyl)-5-fluorofuro[2,3-c]pyridine-2,3-diamine] | 500 to 2000 nM | < 200 nM | 200 to 1000 nM
Nc1sc2ccccc2c1Nc1cccc(F)c1 [Compound 120, N^3-(3-Fluorophenyl)benzo[b]thiophene-2,3-diamine] | < 500 nM | < 200 nM | < 200 nM
Nc1oc2c(C3CCCCC3)nccc2c1Nc1ccc(F)c(Cl)c1 [Compound 108, N^3-(3-Chloro-4-fluorophenyl)-7-cyclohexylfuro[2,3-c]pyridine-2,3-diamine] | 500 to 2000 nM | < 200 nM | < 200 nM
Nc1sc2ccccc2c1Nc1ccc2c(c1)OCO2 [Compound 236, N^3-(benzo[d][1,3]dioxol-5-yl)benzo[b]thiophene-2,3-diamine] | > 2000 nM | < 200 nM | < 200 nM

Structure (SMILES) | IC50 [1] | IC50 (IDO1 in HeLa cells) | IC50 [2]
Nc1oc2cnc(Cl)cc2c1Nc1ccc(F)c(Cl)c1 [Compound 177, 5-Chloro-N3-(3-chloro-4-fluorophenyl)furo[2,3-c]pyridine-2,3-diamine] | 500 to 2000 nM | < 200 nM | < 200 nM
Cc1cc(-c2nccc3c(Nc4ccccc4)c(N)oc23)ccn1 [Compound 239, 7-(2-Methylpyridin-4-yl)-N^3-phenylfuro[2,3-c]pyridine-2,3-diamine] | < 500 nM | < 200 nM | < 200 nM
Nc1oc2c(-c3ccc(F)cc3)nccc2c1Nc1ccc(F)c(Cl)c1 [Compound 147, N^3-(3-Chloro-4-fluorophenyl)-7-(4-fluorophenyl)furo[2,3-c]pyridine-2,3-diamine] | 500 to 2000 nM | < 200 nM | < 200 nM
Nc1oc2cnccc2c1Nc1cccc(C2CC2)c1 [Compound 42, N^3-(3-Cyclopropylphenyl)furo[2,3-c]pyridine-2,3-diamine] | > 2000 nM | < 200 nM | < 200 nM
Cc1ccc(Nc2c(N)oc3cnccc23)cc1Br [Compound 21, N^3-(3-Bromo-4-methylphenyl)furo[2,3-c]pyridine-2,3-diamine] | 500 to 2000 nM | < 200 nM | 200 to 1000 nM
Nc1oc2c(-c3ccncc3)nc(F)cc2c1Nc1ccc(F)c(Cl)c1 [Compound 180, N^3-(3-Chloro-4-fluorophenyl)-5-fluoro-7-(pyridin-4-yl)furo[2,3-c]pyridine-2,3-diamine] | 500 to 2000 nM | < 200 nM | < 200 nM
Nc1oc2cnccc2c1Nc1cccc(C(F)(F)F)c1 [Compound 26, N^3-(3-(Trifluoromethyl)phenyl)furo[2,3-c]pyridine-2,3-diamine] | 500 to 2000 nM | < 200 nM | < 200 nM
CCc1cccc(Nc2c(N)oc3cnccc23)c1 [Compound 19, N^3-(3-Ethylphenyl)furo[2,3-c]pyridine-2,3-diamine] | > 2000 nM | 200 to 1000 nM | 200 to 1000 nM
Nc1oc2cnccc2c1Nc1ccc(F)cc1Br [Compound 10, N^3-(2-Bromo-4-fluorophenyl)furo[2,3-c]pyridine-2,3-diamine] | > 2000 nM | 200 to 1000 nM | > 1000 nM
Nc1sc2ccc(Cl)cc2c1Nc1ccc(F)c(C(F)(F)F)c1 [Compound 132, 5-Chloro-N^3-(4-fluoro-3-(trifluoromethyl)phenyl)benzo[b]thiophene-2,3-diamine] | > 2000 nM | 200 to 1000 nM | 200 to 1000 nM
N#Cc1nccc2c(Nc3ccc(F)c(Cl)c3)c(N)oc12 [Compound 103, 2-Amino-3-((3-chloro-4-fluorophenyl)amino)furo[2,3-c]pyridine-7-carbonitrile] | < 500 nM | < 200 nM | < 200 nM
CNC(=O)c1cc(-c2nccc3c(Nc4cccc(C(F)(F)F)c4)c(N)oc23)ccn1 [Compound 226, 4-(2-Amino-3-((3-(trifluoromethyl)phenyl)amino)furo[2,3-c]pyridin-7-yl)-N-methylpicolinamide] | > 2000 nM | < 200 nM | < 200 nM
Nc1sc2ccc(Br)cc2c1Nc1ccc(F)c(Cl)c1 [Compound 123, 5-Bromo-N^3-(3-chloro-4-fluorophenyl)benzo[b]thiophene-2,3-diamine] | > 2000 nM | 200 to 1000 nM | < 200 nM
Nc1oc2cnccc2c1Nc1cccc(CC2CC2)c1 [Compound 84, N^3-(3-(Cyclopropylmethyl)phenyl)furo[2,3-c]pyridine-2,3-diamine] | > 2000 nM | 200 to 1000 nM | > 1000 nM
Cc1cc(-c2nccc3c(Nc4cc(Cl)ccc4F)c(N)oc23)ccn1 [Compound 263, N^3-(5-Chloro-2-fluorophenyl)-7-(2-methylpyridin-4-yl)furo[2,3-c]pyridine-2,3-diamine] | > 2000 nM | < 200 nM | < 200 nM
N#Cc1ccc2c(Nc3cccc(Br)c3)c(N)oc2c1 [Compound 115, 2-Amino-3-((3-bromophenyl)amino)benzofuran-6-carbonitrile] | < 500 nM | < 200 nM | < 200 nM
CCCc1nccc2c(Nc3cccc(C(F)(F)F)c3)c(N)oc12 [Compound 78, 7-Propyl-N^3-(3-(trifluoromethyl)phenyl)furo[2,3-c]pyridine-2,3-diamine] | > 2000 nM | < 200 nM | < 200 nM
